Experimental data taken from patent US20230084144A1, “THERAPEUTIC COMBINATIONS OF DRUGS AND METHODS OF USING THEM” (ConSynance Therapeutics, Inc., priority 2020, published 2023).
Where “and” joins values, the source holds several entries; their conditions need not be identical. Equal entries are not always repeated.

Legend:
[1] = molecular target: T1, serotonin transporters (SERT) (Homo sapiens, UniProt P31645); assay: PET receptor occupancy at SERT, tracer 11C-MADAM; type: in vivo; details: for SERT RO%: healthy males
T1 construct: from tissue; host or cells: brain (striatum, thalamus) of healthy male volunteers, in vivo PET
T1 sequence (P31645 whole entry): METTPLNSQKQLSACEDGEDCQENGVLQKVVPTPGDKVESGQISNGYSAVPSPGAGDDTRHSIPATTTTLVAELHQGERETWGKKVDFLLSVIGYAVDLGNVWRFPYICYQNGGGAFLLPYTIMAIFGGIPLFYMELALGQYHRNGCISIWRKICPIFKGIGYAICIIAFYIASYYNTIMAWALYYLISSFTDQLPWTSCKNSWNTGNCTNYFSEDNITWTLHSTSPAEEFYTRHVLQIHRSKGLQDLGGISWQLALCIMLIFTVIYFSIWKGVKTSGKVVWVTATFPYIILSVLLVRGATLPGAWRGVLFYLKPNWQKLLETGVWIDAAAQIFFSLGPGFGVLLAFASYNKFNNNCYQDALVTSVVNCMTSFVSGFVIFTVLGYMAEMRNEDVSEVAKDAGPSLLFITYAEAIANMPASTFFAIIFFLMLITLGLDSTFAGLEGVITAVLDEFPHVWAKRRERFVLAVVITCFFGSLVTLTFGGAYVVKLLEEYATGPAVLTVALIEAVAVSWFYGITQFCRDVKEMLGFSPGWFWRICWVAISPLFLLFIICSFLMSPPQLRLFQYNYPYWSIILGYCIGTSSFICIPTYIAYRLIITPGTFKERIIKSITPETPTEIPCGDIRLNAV
Description: (§1) The PET study was a part of a strategy in previous clinical development of the compound of formula I to evaluate in healthy male volunteers with respect to safety, tolerability and pharmacokinetics as well as DAT and SERT occupancy.
(§2) The relationship between plasma the compound of formula I concentration and SERT occupancies, using the individual values, is presented in FIG. 8 and FIG. 9. The numeric values for the individual SERT and […] occupancy and the corresponding plasma concentrations are tabulated in Example 12.
(§3) Striatal receptor occupancy at dopamine transporters (DAT) and serotonin transporters (SERT) with plasma concentrations of Formula I at the midpoint time of the post dosing PET (positron emission tomography) scans (T=4 and 24) after once-a-day multiple doses of 3-60 mg and 10-60 mg for SERT and DAT healthy male cohorts, respectively (Tables below, RO stands for receptor occupancy). Post dosing PET scans were conducted at day 10 (4 h post last dose) and day 14 (24 h post last dose) assuming steady state conditions, using the specific DAT and SERT tracers ^11 C-PE2I and ^11 C-MADAM, respectively. For 45 mg and 60 mg cohorts, there was titration by administration of 30 mg for 3 days and then from day 4 the specified dose. Representative reports on using these two tracers are Learned-Coughlin SM et al, Biol Psychiatry.2003, 54(8):800-5; Jucaite A et al, Eur J Nucl Med Mol Imaging. 2006, 33(6):657-68; and Lundberg J et al, Int J Neuropsychopharmacol. 2007, 10(6):777-85.

[2] = molecular target: T2, Transporter, Norepinephrine (NET) (Homo sapiens, UniProt P23975); assay: Radioligand binding, Transporter, Norepinephrine (NET) (Eurofin Discovery 204410); details: 100 nM compound
T2 construct: host or cells: MDCK cells
T2 sequence (P23975 whole entry): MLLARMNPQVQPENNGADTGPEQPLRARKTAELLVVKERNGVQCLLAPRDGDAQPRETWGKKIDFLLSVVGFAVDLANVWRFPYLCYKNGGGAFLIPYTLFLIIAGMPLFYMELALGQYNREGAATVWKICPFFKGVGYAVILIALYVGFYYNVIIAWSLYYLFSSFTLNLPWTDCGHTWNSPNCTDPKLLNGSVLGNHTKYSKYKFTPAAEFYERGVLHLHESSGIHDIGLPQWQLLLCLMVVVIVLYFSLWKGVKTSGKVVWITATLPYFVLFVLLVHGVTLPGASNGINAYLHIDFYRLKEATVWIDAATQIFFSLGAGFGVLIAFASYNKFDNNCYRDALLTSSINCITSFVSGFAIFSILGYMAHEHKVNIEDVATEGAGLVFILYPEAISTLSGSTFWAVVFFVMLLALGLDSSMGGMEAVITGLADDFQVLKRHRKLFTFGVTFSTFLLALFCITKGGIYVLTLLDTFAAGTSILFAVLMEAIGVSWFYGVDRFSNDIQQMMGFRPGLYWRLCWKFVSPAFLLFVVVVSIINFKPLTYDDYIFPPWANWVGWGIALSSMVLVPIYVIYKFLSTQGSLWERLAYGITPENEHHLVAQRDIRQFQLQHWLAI

[3] = Plasma concentrations at midpoint time of post dosing PET scans; type: in vivo, human; details: healthy males
Protocol: (§4) A LC-MS/MS method was developed and validated for the quantitation of Formula I in 0.250 mL of human EDTA plasma in a total of 7 runs, out of which 1 run was rejected. The method utilized stable labeled Formula I as an internal standard. After the addition of the internal standard (equivalent to 285.4 ng/mL in human EDTA plasma) and 0.250 mL of each quality control (QC) sample and calibration standard, 0.525 mL of methyl t-butyl ether (MTBE) was added to the 96-well sample tubes. The organic layer was removed and evaporated to dryness using a liquid-liquid extraction (LLE). The residue was reconstituted and injected into the LC-MS/MS system. Chromatographic separation was achieved through gradient elution on an Acquity UPLC, BEH Shield RP18™, 50 × 2.1 mm, 1.7 µm particle size column. The mobile phase contained water, acetonitrile, ammonium formate, and formic acid. Detection was accomplished using a Sciex API 4000 tandem mass spectrometer in positive ion electrospray SRM mode. The standard curves, which ranged from 1.00 to 1000 ng/mL for Formula I, were fitted to a ⅟x2 weighted linear regression model. The intra-assay precisions, based on four levels of analytical QCs (low, mid, GM, and high), were within 4.2% CV and inter-assay precisions were within 7.2% CV for the analyte. The assay accuracy, expressed as %DEV, was within 6.4% of the nominal concentration values for the analyte. […] The LLOQ response ratio, when compared to the QC0 response ratio, was ≥ 5 in all matrix lots. The analyte was stable in human EDTA plasma for at least 24 h at room temperature, for at least 14 days at -20° C., and following at least 3 freeze- thaw cycles. The processed samples were stable for 72 hours (h) at room temperature.
as §3

[4] = molecular target: T3, dopamine transporters (DAT) (Homo sapiens, UniProt Q01959); assay: PET striatal receptor occupancy at DAT, tracer 11C-PE2I; type: in vivo; details: following multiple doses of 60 mg, PET study in healthy males
T3 construct: from tissue; host or cells: striatum of healthy male volunteers, in vivo PET
T3 sequence (Q01959 whole entry): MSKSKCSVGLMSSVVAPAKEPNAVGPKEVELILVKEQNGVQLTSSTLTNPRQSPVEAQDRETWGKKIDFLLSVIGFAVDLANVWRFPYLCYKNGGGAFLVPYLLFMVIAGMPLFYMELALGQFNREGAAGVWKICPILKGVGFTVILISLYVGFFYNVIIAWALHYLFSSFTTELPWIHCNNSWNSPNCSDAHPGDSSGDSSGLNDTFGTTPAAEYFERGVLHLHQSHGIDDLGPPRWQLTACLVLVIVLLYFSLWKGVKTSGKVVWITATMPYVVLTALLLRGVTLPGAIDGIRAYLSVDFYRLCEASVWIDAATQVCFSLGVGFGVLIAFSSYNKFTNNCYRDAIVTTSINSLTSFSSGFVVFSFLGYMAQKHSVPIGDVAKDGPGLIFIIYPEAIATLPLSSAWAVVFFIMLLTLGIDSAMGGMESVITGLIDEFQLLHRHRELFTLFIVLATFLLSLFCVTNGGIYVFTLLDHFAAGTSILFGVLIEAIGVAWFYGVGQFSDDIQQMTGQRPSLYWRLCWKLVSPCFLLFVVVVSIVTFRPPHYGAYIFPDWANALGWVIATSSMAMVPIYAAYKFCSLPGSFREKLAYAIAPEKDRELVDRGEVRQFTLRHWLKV
Description: as §1, §2
as §3, with “Representative reports on using these two tracers are Learned-Coughlin SM et al, Biol Psychiatry.2003, 54(8):800-5; Jucaite A et al, Eur J Nucl Med Mol Imaging. 2006, 33(6):657-68; and Lundberg J et al, Int J Neuropsychopharmacol. 2007, 10(6):777-85.” left out

[5] = Stability in human EDTA plasma (LC-MS/MS validation); type: in vitro ADME
Protocol: as §4

[6] = Population PK model (3-compartment) on human PK data; details: healthy volunteers, 3-compartment population PK model
Description: In alternative embodiments, provided are pharmacokinetic modeling and simulation methods for Formula I, comprising using human PK data, as described sequentially in FIG. 25 to FIG. 29. A 3-compartment model best described the human PK data. Between-patient variability in healthy volunteers were 20.2%.

[7] = molecular target: T4, Transporter, Dopamine (DAT) (Homo sapiens, UniProt Q01959); assay: Radioligand binding, Transporter, Dopamine (DAT) (Eurofin Discovery 220320); details: 100 nM compound
T4 construct: host or cells: CHO-S cells
T4 sequence (Q01959 whole entry): as above

[8] = 14-day once-a-day oral multiple ascending dose PK study; type: in vivo, human; set-up: AUC: unit not given here
Description: Tabulated, day-14 PK data (Cmax, Ctrough and AUC) for healthy humans in a 14-day, once-a-day oral dosing, multiple ascending dose study of compound of Formula I.

Clc1ccc(C2CNCc3cc(-c4ccc5ncnn5c4)ccc32)cc1Cl (stereo not drawn) [Formula I, 7-([1,2,4]triazolo[1,5-a]pyridin-6-yl)-4-(3,4-dichlorophenyl)-1,2,3,4-tetrahydroisoquinoline]
SERT RO% ([1]; 10 mg once-a-day, day 10, 4 h post last dose): 53% and 52% | SERT RO% ([1]; 10 mg once-a-day, day 14, 24 h post last dose): 47% and 48% and 51% | SERT RO% ([1]; 30 mg once-a-day, day 10, 4 h post last dose): 71% and 72% and 74% | SERT RO% ([1]; 30 mg once-a-day, day 14, 24 h post last dose): 69% and 66% and 67% | SERT RO% ([1]; 45 mg once-a-day, day 10, 4 h post last dose): 73% and 74% and 75% | SERT RO% ([1]; 45 mg once-a-day, day 14, 24 h post last dose): 73% and 75% and 78% | SERT RO% ([1]; 60 mg once-a-day, day 10, 4 h post last dose): 70% and 61% and 76% | SERT RO% ([1]; 60 mg once-a-day, day 14, 24 h post last dose): 76% and 72% and 77% | SERT occupancy ([1]; multiple doses of 30-60 mg at steady state, healthy male volunteers): 65-75% | inhibition at 0.1 µM [2]: 84% | Formula I plasma concentration ([3]; DAT cohort, 10 mg once-a-day, day 10, 4 h): 214 ng/mL and 173 ng/mL | Formula I plasma concentration ([3]; DAT cohort, 10 mg once-a-day, day 14, 24 h): 149 ng/mL and 147 ng/mL | Formula I plasma concentration ([3]; DAT cohort, 45 mg once-a-day, day 10, 4 h): 924 ng/mL and 905 ng/mL | Formula I plasma concentration ([3]; DAT cohort, 45 mg once-a-day, day 14, 24 h): 668 ng/mL and 673 ng/mL | Formula I plasma concentration ([3]; DAT cohort, 60 mg once-a-day, day 10, 4 h): 1263 ng/mL | Formula I plasma concentration ([3]; DAT cohort, 60 mg once-a-day, day 14, 24 h): 991 ng/mL | Formula I plasma concentration ([3]; SERT cohort, 3 mg once-a-day, day 10, 4 h): 64 ng/mL and 63 ng/mL | Formula I plasma concentration ([3]; SERT cohort, 3 mg once-a-day, day 14, 24 h): 45 ng/mL and 42 ng/mL | Formula I plasma concentration ([3]; SERT cohort, 10 mg once-a-day, day 10, 4 h): 184 ng/mL and 212 ng/mL | Formula I plasma concentration ([3]; SERT cohort, 10 mg once-a-day, day 14, 24 h): 129 ng/mL and 156 ng/mL | Formula I plasma concentration ([3]; SERT cohort, 30 mg once-a-day, day 10, 4 h): 847 ng/mL and 667 ng/mL | Formula I plasma concentration ([3]; SERT cohort, 30 mg once-a-day, day 14, 24 h): 434 ng/mL and 567 ng/mL | Formula I plasma concentration ([3]; SERT cohort, 45 mg once-a-day, day 10, 4 h): 1191 ng/mL and 1105 ng/mL | Formula I plasma concentration ([3]; SERT cohort, 45 mg once-a-day, day 14, 24 h): 904 ng/mL and 895 ng/mL | DAT occupancies [4]: ≤ 60% | DAT occupancies ([4]; listed as formula I): up to 60% | stable in human EDTA plasma following freeze-thaw cycles [5]: at least 3 freeze- thaw cycles | stable in human EDTA plasma at -20° C. ([5]; -20° C.): at least 14 days | processed samples stable at room temperature ([5]; processed (extracted) samples, room temperature): 72 h | stable in human EDTA plasma at room temperature ([5]; room temperature): at least 24 h | Between-patient variability [6]: 20.2% | inhibition at 0.1 µM [7]: 92% | Formula I plasma concentration (ng/ml), Cmax ([8]; healthy person alpha, 3 mg daily oral, day 14, Cmax (blood draw 1-3 h)): 64 ng/mL and 67 ng/mL and 63 ng/mL and 77 ng/mL and 74 ng/mL | Formula I plasma concentration ([8]; healthy person alpha, 3 mg daily oral, day 14, blood draw 0 h): 36 ng/mL and 40 ng/mL and 31 ng/mL and 51 ng/mL and 44 ng/mL | Formula I plasma concentration ([8]; healthy person alpha, 3 mg daily oral, day 14, blood draw about 23-24 h): 38 ng/mL and 42 ng/mL and 34 ng/mL and 48 ng/mL and 50 ng/mL | AUC ([8]; healthy person alpha, 3 mg daily oral, day 14, printed in row of 23-24 h blood draw): 369 and 414 and 338 and 525 and 439 and 374 | Formula I plasma concentration (ng/ml), Cmax ([8]; healthy person alpha, 10 mg daily oral, day 14, Cmax (blood draw 1-3 h)): 249 ng/mL and 243 ng/mL and 285 ng/mL and 259 ng/mL and 242 ng/mL | Formula I plasma concentration ([8]; healthy person alpha, 10 mg daily oral, day 14, blood draw 0 h): 127 ng/mL and 134 ng/mL and 183 ng/mL and 155 ng/mL and 147 ng/mL | Formula I plasma concentration ([8]; healthy person alpha, 10 mg daily oral, day 14, blood draw about 23-24 h): 130 ng/mL and 140 ng/mL and 138 ng/mL and 178 ng/mL and 160 ng/mL and 162 ng/mL | AUC ([8]; healthy person alpha, 10 mg daily oral, day 14, printed in row of 23-24 h blood draw): 1263 and 1447 and 1302 and 1925 and 1884 and 1985 | Formula I plasma concentration (ng/ml), Cmax ([8]; healthy person alpha, 45 mg daily oral, day 14, Cmax (blood draw 1-2 h)): 1570 ng/mL and 1394 ng/mL and 1579 ng/mL and 1348 ng/mL and 1808 ng/mL | Formula I plasma concentration ([8]; healthy person alpha, 45 mg daily oral, day 14, blood draw 0 h): 866 ng/mL and 695 ng/mL and 862 ng/mL and 791 ng/mL and 957 ng/mL | Formula I plasma concentration ([8]; healthy person alpha, 45 mg daily oral, day 14, blood draw 23 h): 890 ng/mL and 693 ng/mL and 941 ng/mL and 779 ng/mL and 924 ng/mL | AUC ([8]; healthy person alpha, 45 mg daily oral, day 14, printed in row of 23 h blood draw): 6276 and 8418 and 6879 and 8712 and 8687 and 9833 | Formula I plasma concentration (ng/ml), Cmax ([8]; healthy person beta, 45 mg daily oral, day 14, Cmax (blood draw 1-3 h)): 1465 ng/mL and 1198 ng/mL and 1313 ng/mL and 1713 ng/mL and 2112 ng/mL | Formula I plasma concentration ([8]; healthy person beta, 45 mg daily oral, day 14, blood draw 0 h): 832 ng/mL and 732 ng/mL and 714 ng/mL and 973 ng/mL and 1274 ng/mL | Formula I plasma concentration ([8]; healthy person beta, 45 mg daily oral, day 14, blood draw about 24 h): 929 ng/mL and 649 ng/mL and 749 ng/mL and 1033 ng/mL and 1249 ng/mL | AUC ([8]; healthy person beta, 45 mg daily oral, day 14, printed in row of 24 h blood draw): 10113 and 9936 and 6959 and 8066 and 11276 and 12977
